Marks after values point to notes of the source that are not given here.
Legend:
SD rats = experiment: Taste disorder test (quinine water versus tap water intake); assay type: in vivo, rat
Protocol: Compounds of Examples 1, 9, 12, 15, 16, 24 (synthesized in the laboratory of the present inventor), the positive control drug (gefapixant, batch No: 01030-210326-2-1, purchased from Holder Pharmaceuticals).
0.9% sodium chloride solution for injection, quinine hydrochloride (Quinie, batch No: C12476271)
Healthy adult SD rats, all males, weighing about 280-300 g.
Preparation of 0.3 mM quinine solution: 119.20 mg of quinine hydrochloride was weighed and dissolved in 1000 ml of tap water, and mixed evenly.
Preparation of the test sample solution: 40 mg of a test sample was dissolved in DMSO and a solution of the solubilizer HS-15 was added, mixed evenly, and 16 ml of saline was added to formulate a 2.5 mg/ml solution.
Animal and grouping: male SD rats weighed about 160-180 g each, with 10 of a similar average weight in each group, were housed in seperate cages.
Drinking habit training: each group was given normal drinking water for 30 minutes at 8:30 am and 16:30 pm every day, and no access of water for the rest of the day for 5 days, and two bottles of water were changed every day at the left and right positions.
Administration: with no access to water the night before the experiment, in the following morning the test group was given 4 mL/kg (10 mg/kg) of the test sample by tail intravenous injection, and the model group was given 4 mL/kg (10 mg/kg) of 0.5% HS-15 by intravenous injection.
The animals were allowed to drink freely for 15 min, and the amount of water consumed from the two bottles was measured to the nearest 0.1 ml.
(2) Statistical analysis of the data: the drinking volume of the quinine bitter water and tap water were recorded separately, as well as the percentage of quinine water to the tap water, and the significance of the difference between the groups was determined by ANOVA.

[1] = cited from earlier work
KM mice = experiment: Mouse cough test (ammonia-induced coughing); assay type: in vivo; settings: for Number of Coughs (time): mice
Description: Compounds of Example 1-24 (synthesized in the inventor's laboratory), positive control drug (gefapixant, batch No: 01030-210326-2-1, purchased from Holder Pharmaceuticals), the compound of Comparative Example 1 (synthesized in the inventor's laboratory).
Healthy adult KM mice, half of them are male and half of them are female, 6 per group, weighing about 28-30 g.
Most of the animal coughing models currently reported in the literatures use mechanical, chemical and electrical stimulations to stimulate the nerves and receptors of the animals to trigger coughing. According to the characteristics of the candidate compounds and the existing similar target compounds for reference, the method of concentrated ammonia induction was initially chosen to establish the cough modeling test in mice.
Preparation of 50% ammonia solution: 2.5 ml of ammonia was dissolved in […] of a 0.9% sodium chloride solution for injection and mixed evenly.
Preparation of a solution of the compound of Comparative Example 1: 9 mg of the compound of Comparative Example 1 was weighed and dissolved in 3 ml of a 0.5% CMC-Na solution, and mixed evenly to prepare a 3 mg/ml solution.
Preparation of a solution of the example compounds: 9 mg of the example compound was weighed and dissolved in 3 ml of a 0.5% CMC-Na solution, and mixed evenly to prepare a 3 mg/ml solution.
Grouping: a positive control group, a Comparative Example 1 group, Example 1 group-Example 24 group, and a model group were set up. Six KM mice were taken from each group and administered by gavage; here, the Comparative Example 1 group was given the compound of Comparative Example 1, the positive control group was given the positive control drug (gefapixant, commercially purchased), the Example groups were given the compounds prepared in the corresponding Examples, with each group given one of three dosages: 30 mg/kg, […], and 3 mg/kg; and the model group was given the same volume of 0.5% CMC-Na solution.
30 min, 60 min or 120 min after administration, the mice were placed in a 500 ml beaker with a cotton ball (weight 100±5 mg) containing 0.3 ml of 50% ammonia.
(1) Judgment criteria of coughing: coughing was manifest in contraction of abdominal muscles or chest contraction, with mouth wide opening and a coughing sound.
(2) The number of coughs (times) within 3 min was recorded with a stopwatch, and the data were statistically analyzed by software, with the data in each group shown in mean±standard deviation. A one-way analysis of variance among the groups was conducted, and P<0.05 was considered a difference having a statistical significance.

For COc1cc(C(C)C)c(Oc2cnc(N)nc2N)cc1S(N)(=O)=O [Positive control, gefapixant, reference compound], the “effect on the taste sense” value (SD rats; 10 mg/kg intravenously, quinine/tap water ratio compared with vehicle group) is given as “significant effect on the taste sense”, the “Quinine/tap water (%)” value (SD rats; 10 mg/kg tail intravenous injection, 0-15 min after administration, 0.3 mM quinine hydrochloride water versus tap water) is given as 79.01%** and the primary efficacy endpoint ([1]; 15 mg twice a day) is given as “not met”. For the same molecule, the 24-hour cough frequency ([1]; 45 mg twice a day, Week 12 (COUGH-1) and Week 24 (COUGH-2), compared to placebo) was “statistically significant reduction”, the “discontinuation due to adverse events” value ([1]; 45 mg) was “higher frequency” and the taste-related adverse events ([1]; 45 mg) was “higher incidence”. For the same molecule, the “cough suppressing efficacy at 10 mg/kg” value (KM mice; 10 mg/kg, 60 min after administration) was “did not have a significant effect in reducing coughs”, the “Number of Coughs (time)” value (KM mice; 10 mg/kg by gavage, 60 min after administration, coughs within 3 min) was 38.83 time and the “Number of Coughs (time)” value (KM mice; 30 mg/kg by gavage, 30 min after administration, coughs within 3 min, ammonia-induced) was 20.33* time. For the same molecule, the “Number of Coughs (time)” value (KM mice; 30 mg/kg by gavage, 60 min after administration, coughs within 3 min (Table 5)) was 23.83** time.
